This note sets out measurements from patent US20250049927A1, “MODIFIED OLIGONUCLEOTIDE-DRUG CONJUGATE AND USE THEREOF” (INTEROLIGO CORPORATION., priority 2021, published 2025).

The subject of the data set is BxPC-3 pancreatic cancer cell lines. Kind of data set: Pancreatic cancer cell growth inhibition, WST assay. In kind it is cell-based. The following applies: BxPC-3, 72 hours treatment, absorbance 450 nm. Here is the method:
The in vitro anticancer efficacy of the modified oligonucleotide-drug conjugates was verified using pancreatic cancer cell lines. Pancreatic cancer cell lines (BxPC-3) were treated with the above-described examples and comparative examples at concentrations of 0, 0.01, 0.1, 1, 10, 100, 500 and 1000 μM, and the specific IC50 measurement method and measurement results are as follows.
All cell lines were cultured in a 5% CO2 incubator at 37° C. The BxPC-3 pancreatic cancer cell lines were cultured using a medium containing 10% FBS and 1% antibiotics put into ATCC modified RPMI-1640 (Thermo Scientific, USA). The medium was replaced once every 2-3 days, and passage-cultured at a time when about 70-90% of a culture dish was filled with the cells. First, the cells were washed with PBS, then 0.05% Trypsin-EDTA was added and cultured at 37° C. for 2 minutes, and then a new medium was added to inactivate trypsin. The cells were separated from trypsin and medium using a centrifuge, then another new medium was added and passaged at a ratio of 1:4, followed by culturing the same. All cells were periodically checked for contamination by mycoplasma using a kit (Intron, Korea), and in vitro efficacy evaluation experiments were conducted using only cells in which contamination was not detected.
Using WST reagent (Dongin LS, Korea), an inhibitory effect on pancreatic cancer cell growth by drug treatment was confirmed and IC50 was measured. An orange coloring substance called formazan is produced in WST by mitochondrial dehydrogenase within cells, which is effective only in living cells. The specific test method is as follows.
The cells cultured by the above-described method were dispensed by 2×10^4 into each well of a 96-well culture vessel and cultured for 24 hours. The medium of the cells attached to the culture vessel was replaced with an ATCC modified RPMI-1640 medium containing 5% FBS, and samples of the above-described modified oligonucleotide-drug conjugates (Examples 1-7 and 9-12, and Comparative Example 1-7, respectively) were treated at concentrations of 0, 0.01, 0.1, 1, 10, 100, 500 and 1000 μM. After 72 hours, 10 μl of WST reagent was added to each well and reacted for 2 hours. The produced formazan was measured with an absorbance at 450 nm using a Glomax plate meter (Promega, USA), and IC50 was evaluated according to the protocol in the device. IC50 evaluation results and graphs illustrating the same are shown in Table 2 below and FIGS. 19 to 27 (in Table 2, M=Gemcitabine, and N=5-FdU).

The substance “Example 3 (GGTGGTGGTGGTNNTGGTGGTGGTGG; paclitaxel via acrylamide-C6-NH-succinic acid linker on U; modified_base 13 OTHER; deoxyuridine(dU); modified_base 14 OTHER; gemcitabine)” had a 50% inhibitory concentration (IC50) of 1 µM.

The substance “Comparative Example 6: DM1 conjugated to U of GGTGGTGGTGGTUGTGGTGGTGGTGG (SEQ ID NO: 3); linker -acrylamide-C6-NH-SMCC- (DNA ggtggtggtggtngtggtggtggtgg; DM1 via acrylamide-C6-NH-SMCC linker; modified_base 13 OTHER; deoxyuridine(dU))” yielded a half-inhibitory concentration (IC50) of 3.01 µM.

For the substance “Comparative Example 2 (GGTGGTGGTGGTTGNGGTGGTGGTGG; paclitaxel conjugate; modified_base 15 OTHER; deoxyuridine(dU)-acrylamide-C6-NH2)”, the IC50 was found to be 4.59 µM.

As for “Example 7 (GGTGGTGGTGGTTGNGGTGGTGGNGG; paclitaxel via acrylamide-C6-NH-succinic acid linker on U; modified_base 15 OTHER; deoxyuridine(dU); modified_base 24 OTHER; gemcitabine)”, 0.11 µM corresponded to half-maximal inhibition (IC50).

The substance “Comparative Example 3 (GGTGGTGGTGGTNGTGGTGGTGGTGG; paclitaxel via acrylamide-C6-NH-succinic acid linker; modified_base 13 OTHER; deoxyuridine(dU)-acrylamide-C6-NH2)” came in with an IC50 of 0.04 µM.

“Example 6: paclitaxel conjugated to U of GGTGGTGGTGGTUGTGGTGGTGGMGG (SEQ ID NO: 9), M=Gemcitabine; linker -acrylamide-C6-NH-succinic acid- (DNA GGTGGTGGTGGTNGTGGTGGTGGNGG; paclitaxel via linker; gemcitabine at M; modified_base 13 OTHER; deoxyuridine(dU); modified_base 24 OTHER; gemcitabine)” had an IC50 of 0.14 µM.

With “Comparative Example 1: control aptamer GGTGGTGGTGGTTGTGGTGGTGGTGG (SEQ ID NO: 1)”, the IC50 came out at 89.9 µM.

Consider “Example 2 (GGTGGTGGTGGNTNTGGTGGTGGTGG; paclitaxel via acrylamide-C6-NH-succinic acid linker; modified_base 12 OTHER; deoxyuridine(dU); modified_base 14 OTHER; gemcitabine)”, for which the half-inhibitory concentration (IC50) stood at 0.23 µM.

“Example 1: paclitaxel conjugated to U of GGTGGTGGTGGUMGTGGTGGTGGTGG (SEQ ID NO: 4), M=Gemcitabine; linker -acrylamide-C6-NH-succinic acid- (DNA GGTGGTGGTGGNNGTGGTGGTGGTGG; paclitaxel via linker; gemcitabine at M; modified_base 12 OTHER; deoxyuridine(dU); modified_base 13 OTHER; Gemcitabine)” came in with a 50% inhibitory concentration (IC50) of 2.21 µM.

The substance “Example 11: DM1 conjugated to U of GGTGGTGGTGGMUGMGGTGGTGGTGG (SEQ ID NO: 8), M=Gemcitabine; linker -acrylamide-C6-NH-SMCC- (DNA GGTGGTGGTGGNNGNGGTGGTGGTGG; gemcitabine nucleotides; DM1 via SMCC linker; modified_base 13 OTHER; deoxyuridine(dU); modified_base 12 OTHER; gemcitabine; modified_base 15 OTHER)” came in with a 50% inhibitory concentration (IC50) of 26.7 µM.

As a reminder, the IC50 is the concentration that gives 50% inhibition.
